Experiments:
[1] = high doses necessary for efficacy (4 g/day); cited from earlier work
Lp(a) = details: man, reported in the literature; cited from earlier work

Q: For `CCOP(=O)(CNCc1cccnc1-c1cc(OC)c(O)c(OC)c1)OCC`, which melting point is on record?
A: 99 to 101 °C

Q: With `CCOP(=O)(CNCc1ccnc(-c2cc(OC)c(O)c(OC)c2)c1)OCC` as the molecule, how does the melting point read?
A: 124 to 126 °C

Q: Which results are given for `O=C(O)c1cccnc1` [nicotinic acid]?
A: serious side-effects [1]: flushing, vasodilation and hepatotoxicity; effect on Lp(a) levels (Lp(a)): lower Lp(a)

Q: With `CC(C)(Sc1cc(C(C)(C)C)c(O)c(C(C)(C)C)c1)Sc1cc(C(C)(C)C)c(O)c(C(C)(C)C)c1` [probucol] as the molecule, how does the “effect on Lp(a) levels” value (Lp(a)) read?
A: equally ineffective

Q: Which “effect on Lp(a) levels” value (Lp(a)) does the source give for `CC[C@H](C)C(=O)O[C@H]1C[C@@H](C)C=C2C=C[C@H](C)[C@H](CC[C@@H]3C[C@@H](O)CC(=O)O3)[C@H]21` [lovastatin] here?
A: do not affect Lp(a) levels

Reference: patent publication US6660724B1, “Compounds and pharmaceutical compositions containing them” (Ilex Products, Inc., priority 1995, dated 2003)
